Molecules are shown by their SMILES. Active and inactive are the calls of the source.

By CC50 is commonly meant the concentration at which the toxic effect on the cells reaches its halfway point. As a reminder, the AC50 is the concentration at which the activity in the assay is half-maximal.

Assay [1] has as its target T1, Corticotropin-releasing factor receptor 2/Corticotropin-releasing factor-binding protein (Homo sapiens, UniProt P24387+Q13324).
T1 sequence (Q13324 whole entry): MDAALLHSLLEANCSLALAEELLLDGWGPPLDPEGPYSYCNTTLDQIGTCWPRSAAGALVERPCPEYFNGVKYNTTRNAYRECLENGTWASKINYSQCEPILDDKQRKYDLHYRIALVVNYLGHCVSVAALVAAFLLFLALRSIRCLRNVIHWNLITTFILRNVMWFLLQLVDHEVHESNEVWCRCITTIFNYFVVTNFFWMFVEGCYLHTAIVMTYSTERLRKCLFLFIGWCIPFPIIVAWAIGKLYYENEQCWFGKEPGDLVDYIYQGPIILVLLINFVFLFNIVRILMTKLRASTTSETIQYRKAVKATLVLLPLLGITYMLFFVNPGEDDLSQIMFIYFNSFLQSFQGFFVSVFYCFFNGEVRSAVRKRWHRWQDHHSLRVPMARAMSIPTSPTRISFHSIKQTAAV
T1 sequence (P24387 whole entry): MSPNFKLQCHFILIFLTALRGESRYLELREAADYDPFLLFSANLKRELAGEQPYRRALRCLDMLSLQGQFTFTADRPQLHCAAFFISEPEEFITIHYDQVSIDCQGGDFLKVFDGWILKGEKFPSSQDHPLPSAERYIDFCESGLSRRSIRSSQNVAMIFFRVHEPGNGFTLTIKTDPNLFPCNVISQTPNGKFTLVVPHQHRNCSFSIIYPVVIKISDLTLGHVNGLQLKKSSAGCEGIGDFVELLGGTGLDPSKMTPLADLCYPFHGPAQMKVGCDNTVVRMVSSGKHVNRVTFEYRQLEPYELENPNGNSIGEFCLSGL
The assay is described as follows: activators of CRF receptor 2 with binding protein – uHTS hits, confirmation (AID 602473). In kind it is functional. The conditions noted are these: read-out: EC50_Mean.

The target of assay [2] is T1, Corticotropin-releasing factor receptor 2/Corticotropin-releasing factor-binding protein. Kind of assay: Dose Response confirmation of uHTS hits for small molecule antagonists of the CRF-binding protein and CRF-R2 receptor complex. It is filed as functional. The conditions noted are these: read-out: IC50_Mean.
Assay [3] is described as follows: Luminescence Cell-Based Dose Confirmation HTS to Identify Activators of 5'UTR Stem-Loop Driven Alpha-Synuclein mRNA Translation in H4 Neuroglioblastoma Cells. [Related pubchem assays: 1829 (Project Summary), 1814 (Primary HTS)]. In kind it is functional.
The next assay deals with H4. Kind of assay: Luminescence Cell-Based Dose Response HTS to Identify Activators of 5'UTR Stem-Loop Driven Prion Protein mRNA Translation in H4 Neuroglioblastoma Cells. [Related pubchem assays: 1829 (Project Summary), 1814 (Primary HTS)]. It is filed as functional. Conditions: Homo sapiens.
A short description of assay [4]: blockers of CRF-binding protein–CRF-R2 complex – cell-based, uHTS hits, 384-well, dose response (AID 651639). It is filed as functional, Homo sapiens. Conditions: read-out: IC50_Mean.
Assay [5] addresses Envelope glycoprotein gp160 (Human immunodeficiency virus 1, UniProt Q6QLK5). Kind of assay: cell-free HIV fusion peptide-binding blockers – biochemical, uHTS, fluorescence dequenching, […] (AID 1986).
Assay [6] is described as follows: Luminescence Cell-Based Dose Response HTS to Identify Activators of Luciferase Translation or Activity in H4 […] Cells. [Related pubchem assays: 1829 (Project Summary), 1814 (Primary HTS)]. It is filed as functional.
For assay [7], the target named is NACHT, LRR and PYD domains-containing protein 3 (Homo sapiens, UniProt Q96P20). The assay is described as follows: NALP3 inhibitors in yeast, dose response, luminescent (AID 488799). It is filed as functional.
The target of assay [8] is T2, Mannose-6-phosphate isomerase (Homo sapiens, UniProt P34949).
T2 sequence (P34949 whole entry): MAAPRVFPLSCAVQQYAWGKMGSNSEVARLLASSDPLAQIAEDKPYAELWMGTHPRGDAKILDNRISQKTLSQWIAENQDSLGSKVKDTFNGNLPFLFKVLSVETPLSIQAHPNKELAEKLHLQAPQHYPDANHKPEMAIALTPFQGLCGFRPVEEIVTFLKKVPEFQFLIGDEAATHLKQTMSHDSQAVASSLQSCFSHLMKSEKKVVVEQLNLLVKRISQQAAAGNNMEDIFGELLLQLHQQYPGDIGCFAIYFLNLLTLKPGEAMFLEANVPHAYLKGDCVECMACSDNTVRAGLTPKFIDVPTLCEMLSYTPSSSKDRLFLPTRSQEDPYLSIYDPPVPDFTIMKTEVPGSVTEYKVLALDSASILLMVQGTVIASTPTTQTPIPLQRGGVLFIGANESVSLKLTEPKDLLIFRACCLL
The assay is described as follows: phosphomannose isomerase inhibition – biochemical, fluorescence intensity, confirmation (AID 1535).

The target of assay [9] is Eukaryotic translation initiation factor 4E (Mus musculus, UniProt P63073). The assay is described as follows: blockers of eIF4G binding by eIF4E – biochemical, TR-FRET, dose response (AID 855).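 Further: potency for disrupting eIF4E binding to eIF4GI seen as loss of FRET.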 In kind it is functional. On the technique in general: TR-FRET usually uses a lanthanide donor and a delayed reading to cut background.
For assay [10], the target named is Phosphoethanolamine/phosphocholine phosphatase (Homo sapiens, UniProt Q8TCT1). Kind of assay: SAR assay for compounds that inhibit PHOSPHO1. [Related pubchem assays (depositor defined):AID1545, AID1565, AID1574].
The next assay addresses Phosphomannomutase 2 (Homo sapiens, UniProt O15305). Kind of assay: Counter screen SAR assay for PMM2 inhibitors via a fluorescence intensity assay. [Related pubchem assays (depositor defined):AID1545, AID1574]. Background: Counterscreens check selectivity or assay interference.
Assay [11] concerns the target T3, Neuropeptides B/W receptor type 1 (Homo sapiens, UniProt P48145).
T3 sequence (P48145 whole entry): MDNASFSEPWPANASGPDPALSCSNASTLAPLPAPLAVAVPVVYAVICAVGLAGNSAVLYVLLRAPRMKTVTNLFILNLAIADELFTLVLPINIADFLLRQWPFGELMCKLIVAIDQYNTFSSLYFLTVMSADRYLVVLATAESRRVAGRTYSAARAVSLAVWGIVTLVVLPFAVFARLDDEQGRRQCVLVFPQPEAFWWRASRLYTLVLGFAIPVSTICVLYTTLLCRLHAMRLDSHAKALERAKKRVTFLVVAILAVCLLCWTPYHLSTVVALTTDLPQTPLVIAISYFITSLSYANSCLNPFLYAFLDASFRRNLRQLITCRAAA
The assay is described as follows: human NPBW1 receptor blockade, IC50 – cell-based, fluorescence, dose response, late-stage follow-up (AID 463251). It is filed as functional.

The target of assay [12] is Melanin-concentrating hormone receptor 1 (Homo sapiens, UniProt Q99705). The assay is described as follows: Late-stage fluorescence-based counterscreen for antagonists of the G-protein coupled receptor 7 (GPR7): cell-based dose response assay to identify antagonists of the melanin-concentrating hormone receptor 1 (MCHR1). [Related pubchem assays (depositor defined):AID1861, AID1880, AID1952, AID2148, AID2251, AID2257, AID485339]. In kind it is functional.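 Further: stimulated with 30 nM MCH peptide agonist.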

Assay [13] deals with T4, Voltage-gated N-type calcium channel alpha-1B subunit/Amyloid beta A4 precursor protein-binding family A member 1 (Homo sapiens, UniProt Q00975+Q02410). The assay is described as follows: disruptors of Mint-PDZ/N-type channel peptide interaction – biochemical, HTRF, SAR follow-up (AID 2489). In kind it is functional.
Assay [14] concerns the target T4, Voltage-gated N-type calcium channel alpha-1B subunit/Amyloid beta A4 precursor protein-binding family A member 1. Kind of assay: disruptors of Mint-PDZ/N-type channel peptide interaction – biochemical, HTRF, set 2, SAR follow-up (AID 434980). It is filed as functional.
Another assay addresses T5, Protein Tat (Human immunodeficiency virus type 1 group M subtype B (isolate HXB2)(HIV-1), UniProt P04608).
T5 sequence (P04608 whole entry): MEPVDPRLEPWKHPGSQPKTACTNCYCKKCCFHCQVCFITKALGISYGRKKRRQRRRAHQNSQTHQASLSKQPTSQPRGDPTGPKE
In kind it is functional.

Assay [15] can be described thus: NIH-3T3 fibroblast cytotoxicity, dose response, cytotoxicity control, cell-based, fluorescence, Alamar Blue, secondary assay (AID 2327).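 Further: NIH-3T3 mouse fibroblasts cultured with fluconazole at 8 µg/mL.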 It is filed as functional. For orientation: Alamar Blue is a resazurin reagent that responds to reducing activity.
Assay [16] can be described thus: viability loss in THP-1 monocytes – THP-1 cells, cytotoxicity control for Vif-APOBEC3G degradation inhibitor project, dose response (AID 1117359). It is filed as functional. Conditions: THP-1.
A short description of assay [17]: fluconazole-exposed Candida albicans growth modulators – fluorescence, retest, confirmation (AID 2467). It is filed as functional, cell-based.
Assay [18] in a line: HGIII-sPLA2 enzyme inhibition potency – biochemical, QFRET, IC50, dose response (AID 743457).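 Further: green fluorescence rise as the enzyme cleaves BODIPY PC-A2 in liposomes.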
Another assay addresses T6, Bcl-2-like protein 10 (Homo sapiens, UniProt Q9HD36).
T6 sequence (Q9HD36 whole entry): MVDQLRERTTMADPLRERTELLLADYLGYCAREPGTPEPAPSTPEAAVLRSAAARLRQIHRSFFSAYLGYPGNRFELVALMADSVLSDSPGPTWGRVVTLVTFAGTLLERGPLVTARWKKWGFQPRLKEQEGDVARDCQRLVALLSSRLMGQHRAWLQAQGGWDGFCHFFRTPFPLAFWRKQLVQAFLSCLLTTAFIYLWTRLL
The assay is described as follows: Bcl-B/TR3 peptide binding disruption – biochemical, fluorescence polarization, FITC-TR3 peptide, selectivity assay for Bfl-1 inhibitor project, primary screen (AID 748).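 Further: fluorescence polarization from a fluorescein-labelled TR3 peptide binding purified Bcl-B.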

The target in assay [19] is T7, Histone-lysine N-methyltransferase NSD2 (Homo sapiens, UniProt O96028).
T7 sequence (O96028 whole entry): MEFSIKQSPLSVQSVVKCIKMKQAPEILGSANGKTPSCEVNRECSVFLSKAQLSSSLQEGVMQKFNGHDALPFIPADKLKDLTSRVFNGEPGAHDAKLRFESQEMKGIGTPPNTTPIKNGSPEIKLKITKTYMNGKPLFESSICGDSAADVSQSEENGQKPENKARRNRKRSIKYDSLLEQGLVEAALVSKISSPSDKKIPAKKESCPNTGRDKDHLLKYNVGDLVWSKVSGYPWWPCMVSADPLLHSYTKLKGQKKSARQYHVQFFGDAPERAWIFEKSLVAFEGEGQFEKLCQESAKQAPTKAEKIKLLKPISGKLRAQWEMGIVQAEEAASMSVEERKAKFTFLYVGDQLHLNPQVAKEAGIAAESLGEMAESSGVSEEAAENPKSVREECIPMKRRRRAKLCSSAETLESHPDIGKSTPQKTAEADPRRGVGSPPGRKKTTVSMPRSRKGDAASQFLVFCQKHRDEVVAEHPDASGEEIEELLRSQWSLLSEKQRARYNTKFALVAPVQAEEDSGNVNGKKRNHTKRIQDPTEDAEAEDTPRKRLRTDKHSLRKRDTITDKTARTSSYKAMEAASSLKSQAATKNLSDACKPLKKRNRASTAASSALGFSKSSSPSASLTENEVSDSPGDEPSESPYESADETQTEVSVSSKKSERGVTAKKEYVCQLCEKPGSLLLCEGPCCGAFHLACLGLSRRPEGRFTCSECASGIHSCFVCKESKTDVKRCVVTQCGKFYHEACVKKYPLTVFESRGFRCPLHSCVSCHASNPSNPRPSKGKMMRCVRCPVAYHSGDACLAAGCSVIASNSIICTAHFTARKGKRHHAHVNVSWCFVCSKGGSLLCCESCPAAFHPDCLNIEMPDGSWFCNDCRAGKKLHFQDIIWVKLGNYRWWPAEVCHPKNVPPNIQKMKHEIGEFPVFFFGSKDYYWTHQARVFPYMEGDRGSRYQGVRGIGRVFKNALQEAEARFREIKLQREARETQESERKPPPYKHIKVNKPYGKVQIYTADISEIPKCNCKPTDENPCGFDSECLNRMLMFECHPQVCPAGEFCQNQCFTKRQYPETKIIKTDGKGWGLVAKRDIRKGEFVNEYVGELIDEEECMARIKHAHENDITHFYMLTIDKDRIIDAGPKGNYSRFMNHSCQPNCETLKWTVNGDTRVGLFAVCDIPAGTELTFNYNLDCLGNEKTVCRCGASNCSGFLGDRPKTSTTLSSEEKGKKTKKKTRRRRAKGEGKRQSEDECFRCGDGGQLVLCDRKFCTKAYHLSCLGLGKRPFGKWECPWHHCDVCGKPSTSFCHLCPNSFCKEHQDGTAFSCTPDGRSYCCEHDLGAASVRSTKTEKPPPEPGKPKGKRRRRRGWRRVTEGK
It is filed as biochemical.

T4 sequence (Q00975 whole entry): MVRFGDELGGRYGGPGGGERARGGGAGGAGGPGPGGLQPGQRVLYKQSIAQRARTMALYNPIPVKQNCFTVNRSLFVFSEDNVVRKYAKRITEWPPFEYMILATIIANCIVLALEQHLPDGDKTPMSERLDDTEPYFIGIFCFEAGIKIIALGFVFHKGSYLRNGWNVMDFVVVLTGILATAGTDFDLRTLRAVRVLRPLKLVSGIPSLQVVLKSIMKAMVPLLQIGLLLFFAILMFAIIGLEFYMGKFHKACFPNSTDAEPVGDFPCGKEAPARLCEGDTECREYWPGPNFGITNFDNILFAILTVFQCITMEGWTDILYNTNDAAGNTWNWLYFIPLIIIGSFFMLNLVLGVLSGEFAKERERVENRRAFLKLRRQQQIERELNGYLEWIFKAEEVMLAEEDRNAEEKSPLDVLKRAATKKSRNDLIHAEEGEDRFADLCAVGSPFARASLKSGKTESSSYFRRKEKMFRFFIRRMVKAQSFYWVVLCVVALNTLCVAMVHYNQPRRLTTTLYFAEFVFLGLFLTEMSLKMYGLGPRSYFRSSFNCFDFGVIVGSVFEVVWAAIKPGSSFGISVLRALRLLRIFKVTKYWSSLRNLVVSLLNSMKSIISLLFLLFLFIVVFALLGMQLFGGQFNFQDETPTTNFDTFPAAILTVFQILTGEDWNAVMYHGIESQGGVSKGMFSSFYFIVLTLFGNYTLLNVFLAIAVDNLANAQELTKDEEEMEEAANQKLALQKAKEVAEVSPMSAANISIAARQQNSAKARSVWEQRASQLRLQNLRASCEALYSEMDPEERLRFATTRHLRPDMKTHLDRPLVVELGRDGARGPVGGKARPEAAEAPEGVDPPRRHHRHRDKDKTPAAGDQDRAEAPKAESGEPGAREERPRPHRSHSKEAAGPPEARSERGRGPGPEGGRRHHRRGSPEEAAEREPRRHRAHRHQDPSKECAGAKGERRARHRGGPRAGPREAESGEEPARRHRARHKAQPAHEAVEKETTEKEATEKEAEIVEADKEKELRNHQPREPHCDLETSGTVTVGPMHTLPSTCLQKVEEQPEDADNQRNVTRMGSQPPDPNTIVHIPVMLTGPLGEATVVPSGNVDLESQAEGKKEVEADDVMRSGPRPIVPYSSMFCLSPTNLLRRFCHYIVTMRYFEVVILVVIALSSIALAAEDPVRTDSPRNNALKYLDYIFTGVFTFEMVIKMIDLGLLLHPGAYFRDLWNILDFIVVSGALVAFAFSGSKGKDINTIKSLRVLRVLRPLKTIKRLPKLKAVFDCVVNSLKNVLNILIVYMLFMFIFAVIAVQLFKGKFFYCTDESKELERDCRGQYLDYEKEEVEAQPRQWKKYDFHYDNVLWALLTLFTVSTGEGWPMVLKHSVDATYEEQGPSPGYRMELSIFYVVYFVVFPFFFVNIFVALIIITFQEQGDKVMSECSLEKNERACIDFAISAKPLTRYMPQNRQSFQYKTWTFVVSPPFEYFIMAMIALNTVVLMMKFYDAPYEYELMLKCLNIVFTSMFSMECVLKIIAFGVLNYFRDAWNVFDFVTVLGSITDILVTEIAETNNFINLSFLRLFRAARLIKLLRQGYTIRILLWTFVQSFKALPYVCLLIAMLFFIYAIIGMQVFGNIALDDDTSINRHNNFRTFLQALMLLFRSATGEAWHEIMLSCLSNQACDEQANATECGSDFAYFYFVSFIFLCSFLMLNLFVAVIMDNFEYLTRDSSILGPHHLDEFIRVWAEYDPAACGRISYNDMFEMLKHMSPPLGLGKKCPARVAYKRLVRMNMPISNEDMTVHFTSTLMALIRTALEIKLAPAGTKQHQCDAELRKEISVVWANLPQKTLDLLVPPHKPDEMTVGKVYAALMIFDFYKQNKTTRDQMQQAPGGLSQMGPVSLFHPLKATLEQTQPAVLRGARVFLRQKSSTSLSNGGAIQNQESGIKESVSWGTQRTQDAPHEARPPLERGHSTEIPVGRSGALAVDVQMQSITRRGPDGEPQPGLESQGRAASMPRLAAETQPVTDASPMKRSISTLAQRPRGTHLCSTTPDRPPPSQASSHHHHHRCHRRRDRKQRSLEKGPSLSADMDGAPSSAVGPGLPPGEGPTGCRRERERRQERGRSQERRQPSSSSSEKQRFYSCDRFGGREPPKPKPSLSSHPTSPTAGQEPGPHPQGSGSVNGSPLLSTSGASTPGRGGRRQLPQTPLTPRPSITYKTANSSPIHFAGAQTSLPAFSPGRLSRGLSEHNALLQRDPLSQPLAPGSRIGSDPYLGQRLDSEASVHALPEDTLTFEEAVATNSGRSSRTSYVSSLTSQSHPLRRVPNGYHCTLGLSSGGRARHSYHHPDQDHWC
T4 sequence (Q02410 whole entry): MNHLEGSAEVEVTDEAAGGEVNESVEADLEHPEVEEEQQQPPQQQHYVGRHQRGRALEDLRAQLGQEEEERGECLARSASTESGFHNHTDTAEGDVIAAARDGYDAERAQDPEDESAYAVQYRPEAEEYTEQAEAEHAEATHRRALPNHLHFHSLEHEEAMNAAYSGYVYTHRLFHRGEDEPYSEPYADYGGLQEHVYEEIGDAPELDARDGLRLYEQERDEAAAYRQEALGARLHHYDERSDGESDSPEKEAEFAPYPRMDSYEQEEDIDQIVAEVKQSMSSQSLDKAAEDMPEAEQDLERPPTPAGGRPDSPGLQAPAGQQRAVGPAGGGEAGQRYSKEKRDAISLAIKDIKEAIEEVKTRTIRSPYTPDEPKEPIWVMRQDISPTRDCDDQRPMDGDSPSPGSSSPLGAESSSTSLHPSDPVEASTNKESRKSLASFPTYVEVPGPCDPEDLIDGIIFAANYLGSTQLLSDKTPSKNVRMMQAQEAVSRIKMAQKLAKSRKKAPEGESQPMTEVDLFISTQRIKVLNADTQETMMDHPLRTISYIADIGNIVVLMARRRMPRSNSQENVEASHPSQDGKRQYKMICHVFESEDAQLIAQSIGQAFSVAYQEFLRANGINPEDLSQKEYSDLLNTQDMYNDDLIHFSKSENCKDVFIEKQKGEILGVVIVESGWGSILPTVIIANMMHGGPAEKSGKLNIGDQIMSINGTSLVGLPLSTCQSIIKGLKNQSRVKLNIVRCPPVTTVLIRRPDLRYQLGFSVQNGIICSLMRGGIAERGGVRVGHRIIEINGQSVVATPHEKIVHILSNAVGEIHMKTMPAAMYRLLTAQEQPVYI
Chain of Envelope glycoprotein gp160 (Q6QLK5 whole entry, the tested form may be a part): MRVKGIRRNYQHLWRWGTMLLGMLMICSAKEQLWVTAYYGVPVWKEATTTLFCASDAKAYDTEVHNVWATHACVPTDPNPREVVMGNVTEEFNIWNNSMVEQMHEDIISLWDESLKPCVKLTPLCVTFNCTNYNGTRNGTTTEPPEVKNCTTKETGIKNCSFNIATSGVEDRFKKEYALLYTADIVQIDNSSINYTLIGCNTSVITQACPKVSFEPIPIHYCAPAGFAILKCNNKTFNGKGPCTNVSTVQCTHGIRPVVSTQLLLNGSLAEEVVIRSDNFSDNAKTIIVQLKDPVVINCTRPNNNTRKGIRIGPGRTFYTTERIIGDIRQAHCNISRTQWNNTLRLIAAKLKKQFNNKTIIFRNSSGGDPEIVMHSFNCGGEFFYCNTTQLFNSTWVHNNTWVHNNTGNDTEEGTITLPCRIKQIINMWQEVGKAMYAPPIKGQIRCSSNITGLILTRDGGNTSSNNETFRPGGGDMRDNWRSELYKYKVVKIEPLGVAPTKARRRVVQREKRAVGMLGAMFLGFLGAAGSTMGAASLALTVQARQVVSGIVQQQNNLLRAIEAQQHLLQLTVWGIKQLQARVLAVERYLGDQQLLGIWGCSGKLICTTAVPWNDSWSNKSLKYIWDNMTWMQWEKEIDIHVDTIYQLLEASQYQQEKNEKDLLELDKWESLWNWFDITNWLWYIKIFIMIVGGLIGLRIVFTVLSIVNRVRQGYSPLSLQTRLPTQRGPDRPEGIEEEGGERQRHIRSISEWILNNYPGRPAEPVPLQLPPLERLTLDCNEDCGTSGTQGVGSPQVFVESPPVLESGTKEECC
Chain of Phosphomannomutase 2 (O15305 whole entry): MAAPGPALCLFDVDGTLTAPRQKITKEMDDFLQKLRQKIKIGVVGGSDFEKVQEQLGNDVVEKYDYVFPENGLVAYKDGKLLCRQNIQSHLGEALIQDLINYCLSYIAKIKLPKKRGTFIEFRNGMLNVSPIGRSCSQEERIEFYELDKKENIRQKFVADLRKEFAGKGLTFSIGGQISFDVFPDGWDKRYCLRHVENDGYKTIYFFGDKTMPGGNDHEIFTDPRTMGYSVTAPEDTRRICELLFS
Chain of Melanin-concentrating hormone receptor 1 (Q99705 whole entry): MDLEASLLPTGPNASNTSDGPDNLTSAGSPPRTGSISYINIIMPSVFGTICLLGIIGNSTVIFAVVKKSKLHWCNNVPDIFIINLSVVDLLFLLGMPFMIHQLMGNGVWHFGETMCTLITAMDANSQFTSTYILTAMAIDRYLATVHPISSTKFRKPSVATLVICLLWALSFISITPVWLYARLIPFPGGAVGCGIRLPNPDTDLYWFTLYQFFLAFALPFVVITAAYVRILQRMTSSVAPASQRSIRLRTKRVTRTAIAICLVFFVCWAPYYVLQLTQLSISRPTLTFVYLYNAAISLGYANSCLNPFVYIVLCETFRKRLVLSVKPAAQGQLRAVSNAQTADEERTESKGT
Chain of Phosphoethanolamine/phosphocholine phosphatase (Q8TCT1 whole entry): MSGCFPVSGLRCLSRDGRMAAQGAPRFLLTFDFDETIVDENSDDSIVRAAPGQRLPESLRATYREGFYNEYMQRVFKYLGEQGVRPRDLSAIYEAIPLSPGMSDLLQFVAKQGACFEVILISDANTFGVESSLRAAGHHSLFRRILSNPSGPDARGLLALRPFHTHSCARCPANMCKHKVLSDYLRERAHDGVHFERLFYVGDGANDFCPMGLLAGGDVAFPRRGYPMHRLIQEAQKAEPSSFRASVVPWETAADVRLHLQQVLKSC
Chain of Eukaryotic translation initiation factor 4E (P63073 whole entry): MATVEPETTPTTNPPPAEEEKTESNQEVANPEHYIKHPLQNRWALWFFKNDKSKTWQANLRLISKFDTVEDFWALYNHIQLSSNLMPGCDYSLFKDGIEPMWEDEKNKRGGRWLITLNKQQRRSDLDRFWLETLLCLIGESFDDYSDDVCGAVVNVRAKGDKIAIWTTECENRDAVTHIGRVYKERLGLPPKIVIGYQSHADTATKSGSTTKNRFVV

On to `CCS(=O)(=O)C1=NSC2=NC(=O)/C(=C\c3cc(C)n(-c4cccc(OC)c4)c3C)C(=N)N21`, for which the EC50 is > 53 µM (inactive) in assay [1], > 120 µM (not active) in assay [3], > 120 µM (not active) in the assay on H4 and > 120 µM (not active) in [6]. Besides, the IC50 was 5.1 µM (active) in assay [2], 6.75 µM (active) in assay [4] and > 99 µM (inactive) in [5].

With `c1ccc(C2Nc3ccccc3C3OCCCC23)cc1` (stereo not drawn), the IC50 in assay [7] was 7.36 µM (active).

`O=c1c2c([N+](=O)[O-])cc([N+](=O)[O-])cc2sn1-c1ccc(Br)cc1`: the IC50 in [8] was 12.2 µM (active); in assay [9] it was 8.14 µM (active); in assay [10] it was 0.0725 µM (active); at Phosphomannomutase 2, 10.8 µM (active).

In the case of `O=C(C1CCCCN1Cc1cccc(Cl)c1Cl)N1CCN(c2ccc([N+](=O)[O-])cc2)CC1` (stereo not drawn), the IC50 was 4.4 µM (active) in [11] and 3.3 µM (active) in [12].

Regarding `O=C(NC1CCC(c2ccccc2)CC1)c1cc(-c2ccco2)nc2ccccc12` (stereo not drawn), the results for the IC50 in assay [13] and in [14] were 5.59 µM (active) and 25.5 µM (active), respectively.

For the compound `N#C/C(C(N)=O)=c1/ccc2c(c1)N1C3=C(CCCC3)CC3CCCCC31N=2` (stereo not drawn), the IC50 is > 100 µM (inconclusive) on Protein Tat, 72.7 µM (inactive) in [18] and > 50 µM (inactive) at Bcl-2-like protein 10. The EC50 is 8.74 µM (inconclusive) in assay [15] and 4.01 µM (active) in assay [17]. For the same compound, the CC50 in assay [16] is 33.5 µM (active). In addition, the AC50 in assay [19] was 10.2 µM (active).

Values taken from ChEMBL document CHEMBL1201862, “PubChem BioAssay data set” (2004).
